The values that follow come from ChEMBL document CHEMBL1201862, “PubChem BioAssay data set” (2004).

One experiment deals with Cytochrome P450 2D6 (Homo sapiens, UniProt P10635).
The target of experiment [1] is T1, Sentrin-specific protease 8 (Homo sapiens, UniProt Q96LD8).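 Note: luminescence read-out of SENP8 inhibition, dose-response confirmation following an ultra-high-throughput screen.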
T1 sequence (Q96LD8 whole entry): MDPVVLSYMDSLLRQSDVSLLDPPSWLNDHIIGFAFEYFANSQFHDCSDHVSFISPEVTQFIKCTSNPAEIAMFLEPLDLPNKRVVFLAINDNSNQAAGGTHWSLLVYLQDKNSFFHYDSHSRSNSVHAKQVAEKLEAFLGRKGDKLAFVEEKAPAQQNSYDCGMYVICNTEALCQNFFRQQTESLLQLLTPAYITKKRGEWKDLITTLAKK
Format: functional.

For experiment [2], the target named is T2, Sentrin-specific protease 6 (Homo sapiens, UniProt Q9GZR1).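 Note: Luminescence-based dose-response confirmatory assay of SENP6 inhibition, following up an ultra-high-throughput screen.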
T2 sequence (Q9GZR1 whole entry): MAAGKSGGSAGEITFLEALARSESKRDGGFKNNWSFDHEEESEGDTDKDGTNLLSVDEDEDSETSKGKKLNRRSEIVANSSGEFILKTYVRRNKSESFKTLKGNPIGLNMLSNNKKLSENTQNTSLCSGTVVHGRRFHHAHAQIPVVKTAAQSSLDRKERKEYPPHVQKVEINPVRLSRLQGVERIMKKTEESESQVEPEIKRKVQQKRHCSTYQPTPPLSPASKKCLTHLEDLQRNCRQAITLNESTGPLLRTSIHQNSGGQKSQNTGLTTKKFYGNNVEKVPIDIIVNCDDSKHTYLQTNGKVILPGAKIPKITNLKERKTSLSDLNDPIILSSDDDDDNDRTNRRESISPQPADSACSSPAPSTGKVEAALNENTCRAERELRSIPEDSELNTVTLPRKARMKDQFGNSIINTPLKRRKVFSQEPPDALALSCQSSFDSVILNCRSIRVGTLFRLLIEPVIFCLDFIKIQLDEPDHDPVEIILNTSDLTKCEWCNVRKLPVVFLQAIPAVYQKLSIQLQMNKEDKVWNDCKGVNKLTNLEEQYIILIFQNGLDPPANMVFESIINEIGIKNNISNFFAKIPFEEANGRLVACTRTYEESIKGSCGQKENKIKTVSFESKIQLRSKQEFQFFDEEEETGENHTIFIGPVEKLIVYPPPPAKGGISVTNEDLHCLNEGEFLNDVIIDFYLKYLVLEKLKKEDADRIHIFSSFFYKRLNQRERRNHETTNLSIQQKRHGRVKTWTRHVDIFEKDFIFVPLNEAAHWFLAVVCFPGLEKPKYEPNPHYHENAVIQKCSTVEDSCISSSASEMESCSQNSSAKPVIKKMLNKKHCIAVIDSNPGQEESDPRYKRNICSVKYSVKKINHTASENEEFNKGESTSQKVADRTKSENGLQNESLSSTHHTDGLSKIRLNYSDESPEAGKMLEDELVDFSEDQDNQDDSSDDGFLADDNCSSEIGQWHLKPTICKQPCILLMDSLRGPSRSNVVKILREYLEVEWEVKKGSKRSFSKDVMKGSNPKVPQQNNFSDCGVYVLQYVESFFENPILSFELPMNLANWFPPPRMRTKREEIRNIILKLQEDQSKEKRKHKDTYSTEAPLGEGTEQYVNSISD
Format: functional.

The target in experiment [3] is T3, Sentrin-specific protease 7 (Homo sapiens, UniProt Q9BQF6).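 Note: Luminescence-based dose-response confirmation of ultra-high-throughput screening hits, measuring inhibition of SENP7.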
T3 sequence (Q9BQF6 whole entry): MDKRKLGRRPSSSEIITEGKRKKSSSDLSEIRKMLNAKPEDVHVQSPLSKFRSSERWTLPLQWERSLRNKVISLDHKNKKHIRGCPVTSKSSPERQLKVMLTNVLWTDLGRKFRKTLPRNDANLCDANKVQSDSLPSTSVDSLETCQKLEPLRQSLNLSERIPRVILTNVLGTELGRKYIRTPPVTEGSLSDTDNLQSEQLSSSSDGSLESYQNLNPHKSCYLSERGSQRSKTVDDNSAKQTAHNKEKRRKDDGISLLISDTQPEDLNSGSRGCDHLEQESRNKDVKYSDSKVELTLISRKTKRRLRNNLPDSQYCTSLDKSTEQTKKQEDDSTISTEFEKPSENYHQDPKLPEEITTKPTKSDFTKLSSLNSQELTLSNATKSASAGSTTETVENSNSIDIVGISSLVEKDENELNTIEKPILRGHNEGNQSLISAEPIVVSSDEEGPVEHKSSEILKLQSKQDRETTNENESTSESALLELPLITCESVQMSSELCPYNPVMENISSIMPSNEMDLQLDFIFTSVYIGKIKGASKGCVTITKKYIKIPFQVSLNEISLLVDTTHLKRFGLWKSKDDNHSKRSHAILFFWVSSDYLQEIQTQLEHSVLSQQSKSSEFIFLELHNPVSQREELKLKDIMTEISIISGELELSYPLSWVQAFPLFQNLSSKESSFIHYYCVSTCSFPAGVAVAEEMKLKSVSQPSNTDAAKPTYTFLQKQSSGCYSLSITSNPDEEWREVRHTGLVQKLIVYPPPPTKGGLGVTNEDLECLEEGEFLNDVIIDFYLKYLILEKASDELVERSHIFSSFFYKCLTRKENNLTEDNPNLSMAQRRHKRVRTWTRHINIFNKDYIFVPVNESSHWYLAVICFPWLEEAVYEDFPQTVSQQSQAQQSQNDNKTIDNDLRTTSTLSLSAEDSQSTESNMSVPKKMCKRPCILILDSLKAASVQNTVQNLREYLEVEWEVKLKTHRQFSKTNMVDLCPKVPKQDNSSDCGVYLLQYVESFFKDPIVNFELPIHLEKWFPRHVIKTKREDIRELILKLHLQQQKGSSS
Format: functional.

A further experiment deals with T4, Caspase-3 (Homo sapiens, UniProt P42574).
T4 sequence (P42574 whole entry): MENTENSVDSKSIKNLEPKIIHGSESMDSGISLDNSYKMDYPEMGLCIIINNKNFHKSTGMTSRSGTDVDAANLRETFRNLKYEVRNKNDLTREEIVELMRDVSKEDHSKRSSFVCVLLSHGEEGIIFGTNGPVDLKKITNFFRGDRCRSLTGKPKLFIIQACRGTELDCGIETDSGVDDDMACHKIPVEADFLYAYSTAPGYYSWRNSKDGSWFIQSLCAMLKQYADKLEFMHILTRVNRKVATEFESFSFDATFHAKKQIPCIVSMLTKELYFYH
Format: functional.

For another experiment, the target named is Cytochrome P450 2C9 (Homo sapiens, UniProt P11712).
Sequence of Cytochrome P450 2C9 (P11712 whole entry): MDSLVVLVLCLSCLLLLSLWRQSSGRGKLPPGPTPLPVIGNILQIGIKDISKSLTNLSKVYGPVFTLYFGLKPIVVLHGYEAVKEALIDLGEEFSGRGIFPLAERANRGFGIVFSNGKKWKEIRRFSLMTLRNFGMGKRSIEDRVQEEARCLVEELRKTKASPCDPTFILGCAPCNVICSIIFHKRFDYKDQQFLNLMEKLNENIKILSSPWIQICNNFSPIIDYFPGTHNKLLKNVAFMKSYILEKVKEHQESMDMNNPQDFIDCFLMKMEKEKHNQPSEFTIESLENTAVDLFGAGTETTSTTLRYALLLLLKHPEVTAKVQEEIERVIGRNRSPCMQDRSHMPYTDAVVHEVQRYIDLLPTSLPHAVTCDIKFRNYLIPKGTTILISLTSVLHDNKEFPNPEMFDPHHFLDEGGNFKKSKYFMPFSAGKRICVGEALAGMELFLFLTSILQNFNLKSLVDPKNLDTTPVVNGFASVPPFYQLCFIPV
A short description of experiment [4]: Luminescence Cell-Based Dose Retest to Confirm Inhibitors of Cancer Stem Cells. [Related pubchem assays (depositor defined):AID2717, AID2721]. It counts as functional. The settings on record: Homo sapiens.
Experiment [5] is described as follows: microbe, parasite or virus in culture. Format: functional. The settings on record: Mycobacterium tuberculosis.
A further experiment relates to INS1. In words: beta cell apoptosis inhibitors, cytokine rescue, dose response, luminescence, retest (AID 449756).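 Note: cell death triggered by IL-1 beta plus TNF-alpha plus IFN-gamma mixture; protective hits raise ATP signal compared with cytokine alone wells.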 It counts as functional, cell-based. Particulars: Rattus norvegicus.
The test system of a further experiment is Streptococcus. The experiment is described as follows: Group A Streptococcus viability loss, dose response, counter-screen for streptokinase expression inhibitor project, luminescence, BacTiterGlo (AID 1915).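 Note: potency for reduction of bacterial viability or growth.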 It counts as functional, organism-based.
The target in experiment [6] is T5, Heat shock factor protein 1 (Mus musculus, UniProt P38532).
T5 sequence (P38532 whole entry): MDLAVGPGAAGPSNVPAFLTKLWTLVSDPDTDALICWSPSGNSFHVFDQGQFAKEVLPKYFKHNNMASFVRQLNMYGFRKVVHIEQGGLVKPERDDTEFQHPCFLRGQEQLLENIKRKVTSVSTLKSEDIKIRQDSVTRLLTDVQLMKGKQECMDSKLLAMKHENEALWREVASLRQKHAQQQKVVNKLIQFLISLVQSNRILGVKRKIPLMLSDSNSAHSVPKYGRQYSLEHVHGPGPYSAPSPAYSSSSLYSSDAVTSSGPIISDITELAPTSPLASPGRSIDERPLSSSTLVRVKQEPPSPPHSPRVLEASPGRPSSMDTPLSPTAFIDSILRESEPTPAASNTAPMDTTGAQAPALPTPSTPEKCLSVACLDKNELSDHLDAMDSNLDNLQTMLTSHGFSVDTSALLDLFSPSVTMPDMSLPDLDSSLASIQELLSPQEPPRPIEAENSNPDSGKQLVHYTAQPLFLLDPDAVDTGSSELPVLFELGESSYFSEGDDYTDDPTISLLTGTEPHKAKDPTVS
The experiment is described as follows: HSF1 potentiators in luciferase reporter cells, confirmation, cell-based, NIH3T3, luminescence, dose retest (AID 435004).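 Note: stress induced by proteasome inhibitor MG132 added 30 min after compound; luciferase reporter driven by HSF1 response element in NIH3T3 cells; actives raise luminescence as potentiators of the MG132 stress response.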 It counts as functional.

In experiment [7] the test system is Streptococcus sp. 'group A'. The experiment is described as follows: growth inhibition of control SK(-) GAS strain, dose response, counter-screen for streptokinase expression inhibitor project, luminescence, kanamycin, BacTiterGlo, confirmation (AID 1900). It counts as functional, organism-based. (A counterscreen serves to expose hits that act by an unwanted route or on another target.)

The next experiment deals with T6, Streptokinase A (Streptococcus pyogenes serotype M1, UniProt P10520).
T6 sequence (P10520 whole entry): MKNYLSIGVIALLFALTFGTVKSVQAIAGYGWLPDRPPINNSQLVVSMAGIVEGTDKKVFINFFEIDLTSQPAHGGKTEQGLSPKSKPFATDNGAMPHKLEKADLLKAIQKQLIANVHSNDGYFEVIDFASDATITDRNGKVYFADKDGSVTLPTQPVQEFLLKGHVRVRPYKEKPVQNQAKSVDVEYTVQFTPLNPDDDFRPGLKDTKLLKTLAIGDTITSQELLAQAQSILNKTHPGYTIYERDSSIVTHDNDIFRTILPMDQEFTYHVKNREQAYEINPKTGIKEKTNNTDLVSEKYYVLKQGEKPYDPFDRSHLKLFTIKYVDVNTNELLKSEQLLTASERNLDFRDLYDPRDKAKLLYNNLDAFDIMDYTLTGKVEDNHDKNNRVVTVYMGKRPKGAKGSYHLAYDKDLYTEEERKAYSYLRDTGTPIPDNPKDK
The experiment is described as follows: S. pyogenes streptokinase expression inhibitors, potency, dose response, plasminogen activation absorbance, OD405 (AID 1914).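 Note: secreted streptokinase activity via plasminogen activation per viability signal from cell pellet.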 It counts as functional, Streptococcus pyogenes M1 GAS.

One may read the AC50 as the concentration at which the activity in the assay is half-maximal. The term IC50 denotes the point on the concentration scale where inhibition reaches its midpoint. The EC50 is the concentration giving half of the maximal effect.

The source made the active and inactive calls.

Sequence of Cytochrome P450 2D6 (P10635 whole entry): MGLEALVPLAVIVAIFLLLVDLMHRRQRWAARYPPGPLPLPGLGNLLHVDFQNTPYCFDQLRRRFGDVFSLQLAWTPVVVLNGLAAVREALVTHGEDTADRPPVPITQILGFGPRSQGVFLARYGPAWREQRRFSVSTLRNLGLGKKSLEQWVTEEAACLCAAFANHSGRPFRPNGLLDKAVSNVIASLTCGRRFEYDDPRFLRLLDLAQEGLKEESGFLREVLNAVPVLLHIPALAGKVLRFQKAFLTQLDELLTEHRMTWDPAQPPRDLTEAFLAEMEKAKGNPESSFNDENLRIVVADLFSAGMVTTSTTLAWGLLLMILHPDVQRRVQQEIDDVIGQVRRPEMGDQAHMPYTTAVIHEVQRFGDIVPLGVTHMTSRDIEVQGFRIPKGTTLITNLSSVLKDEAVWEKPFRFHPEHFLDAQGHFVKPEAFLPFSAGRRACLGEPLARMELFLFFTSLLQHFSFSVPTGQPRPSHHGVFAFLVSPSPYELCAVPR

Take `COc1cccc([C@@H]2Oc3ccc(OC)cc3C(=O)[C@H]2O)c1`: the AC50 at Cytochrome P450 2D6 was 3.16 µM (inconclusive).
As for `Cc1nc2ccc(NC(=O)c3cc(Cl)ccn3)cc2s1`, the IC50 was 86.4 µM (active) in experiment [1], 12.9 µM (active) in experiment [2], 3.62 µM (active) in experiment [3] and 3.79 µM (active) at Caspase-3.
Take `Clc1nc(-c2ccccn2)nc2scc(-c3ccccc3)c12`: the half-inhibitory concentration (IC50) was 7.79 µM (active) in [1], 6.7 µM (active) in experiment [2], 3.74 µM (active) in [3] and 7.37 µM (active) at Caspase-3.
Taken in the same sequence, the figures for `O=C(COC(=O)c1ccc([N+](=O)[O-])s1)NC(=O)NCc1ccccc1` were 4.28 µM (active), 4.59 µM (active), 8.47 µM (active) and 13.7 µM (active).
As to `CCC(=O)Nc1ccc(N2CCN(CC)CC2)c(Cl)c1`, the AC50 at Cytochrome P450 2D6 is 0.0447 µM (inconclusive).
For the compound `CN(CC(=O)Nc1ccc(Cl)cc1)C(=O)CNC(=O)c1ccc2ccccc2c1`, the IC50 was > 100 µM (inactive) in experiment [1], > 100 µM (inactive) in [2], 11.1 µM (active) in experiment [3] and 26.4 µM (active) on Caspase-3.
Consider `CCn1c(-c2ccccc2Cl)nn(CC(=O)Nc2cc(Cl)ccc2Cl)c1=S`, for which the AC50 on Cytochrome P450 2D6 and at Cytochrome P450 2C9 was 25.1 µM (inconclusive) in each case.
On to `CCCC[C@@H](CN[C@H](C)CNC)NCC1CCC(C(C)(C)C)CC1` (some centres undefined), for which the concentration at half-maximal activity (AC50) was 6.55 µM (active) in experiment [4] and 6.4 µM (active) in the experiment with INS1. In addition, the CC50 in [5] is 12.7 µM (active).
Take `CN(C)c1ccc(-c2cncnc2NCc2cccnc2)cc1`: the figures for the half-maximal activity concentration (AC50) on Cytochrome P450 2D6 and at Cytochrome P450 2C9 were 12.6 µM (inconclusive) and 0.501 µM (inconclusive), respectively.
As to `Clc1ccccc1-c1nccc(NCc2ccccc2)n1`, the AC50 at Cytochrome P450 2D6 was 39.8 µM (inconclusive).
For `Fc1ccccc1SCc1nnc(-c2ccccc2Br)o1`, the IC50 was 14.7 µM (active) in [1], 12.1 µM (active) in [2], 6.47 µM (active) in experiment [3] and 17.1 µM (active) on Caspase-3.
Turning to `O=C1c2cccc3c([N+](=O)[O-])ccc(c23)C(=O)N1O`, the concentration giving a half-maximal response (EC50) with Streptococcus is 15.8 µM (active); in [6] it was 244 µM (active); in experiment [7], 0.999 µM (active); at Streptokinase A it was > 150 µM (not active). The CC50 in experiment [5] is 17.8 µM (active).
Regarding `O=c1c2c3c(sc2nc(N2CCNCC2)n1-c1cccc(Cl)c1)CCCCC3`, the CC50 in experiment [5] was 13.6 µM (active).
In the case of `O=C(c1ccco1)N1CCC2(CC1)CN(Cc1ccncc1)C2`, the AC50 on Cytochrome P450 2D6 was 12.6 µM (inconclusive).
Still for that read-out and setting: the result for `O=C(CCN1C(=O)c2ccccc2C1=O)NC(=S)Nc1cccc(Cl)c1` reads 0.0447 µM (inconclusive).
As for `Oc1ccc(/C=C/c2ccnc3ccccc23)cc1`, the IC50 is > 100 µM (inactive) in experiment [1], > 100 µM (inactive) in [2], 9.49 µM (active) in experiment [3] and 34.5 µM (active) at Caspase-3.
Consider `COc1ccccc1N1CCN(/N=C/c2ccc([N+](=O)[O-])cc2)CC1`, for which the IC50 is > 100 µM (inactive) in [1], 3.64 µM (active) in experiment [2], 2.17 µM (active) in experiment [3] and 2.68 µM (active) at Caspase-3.
For `O=C(Nc1ccc(N2CCN(C(=O)c3ccco3)CC2)cc1)C(c1ccccc1)c1ccccc1`, the CC50 in [5] was > 40 µM (active).
Regarding `O=S1(=O)N(CCN2CC=C(c3c[nH]c4cc(F)ccc34)CC2)c2cccc3c2N1CCC3`, the AC50 on Cytochrome P450 2C9 is 25.1 µM (inconclusive). Besides, in experiment [5], the CC50 was > 40 µM (active).
